# Literature values as cited in US6653298B2, “Composition” (Sterix Limited, priority 2000, dated 2003).
# Columns and labels:
# [1] = single oral dose 50 μg, FIG. 4; cited from earlier work
# [2] = referring to antigonadotropic properties; cited from earlier work
structure (smiles),measurement,setting,value
"C#C[C@]1(O)CC[C@H]2[C@@H]3CCc4cc(O)ccc4[C@H]3CC[C@@]21C [EE, ethinyl estradiol]",definition of blood levels (individual variation),[1],does not lead to well defined blood levels
same,oestrogenicity in the liver relative to orally applied natural estrogens,[2],4 to 18 times
